The subject of data set [1] is Plasmodium falciparum Dd2 (chloroquine, pyrimethamine, and mefloquine drug-resistant strain). Briefly: In vitro anti-plasmodial image-based asexual assay, Dd2 strain. Conditions: for IC50 / inhibition at 80 µM: Plasmodium falciparum, Dd2 strain; for IC50: 72 h; for Dd2 potency compared to the 3D7 results, in words: Dd2 versus 3D7; for inhibition at 80 µM: top dose of 80 µM, read-out: Pf Dd2 inhibition at the top dose. The data set is classed as cell-based. Here is the method:
(§1) The semisynthesized/functionalized triazolopyrazine compounds and the scaffold triazolopyrazine precursors, compounds 1–18, were tested for their antimalarial activity against the 3D7 (chloroquine-sensitive strain) and Dd2 (chloroquine, pyrimethamine, and mefloquine resistant strain) P. falciparum. Where an accurate IC50 value could not be determined due to 100% growth inhibition and a plateau not being reached, but where ≥90% growth inhibition was attained at the top screening concentration, an estimated IC50 value was calculated.
(§2) Plsamodium falciparum 3D7 and Dd2 parasites were cultured in RPMI1640 (Life Technologies, Camarillo, CA, USA) supplemented with 2.5 mg/mL Albumax II, 5% AB human serum, 25 mM HEPES, and 0.37mM hypoxanthine. Ring stage parasites were treated with compounds following two rounds of sorbitol synchronization, as previously described. Artesunate and pyrimethamine were incorporated as controls. Following incubation of assay plates for 72 h at 37 °C, and 5% CO2 and 5% O2, parasites were stained with 2-(4-amidinophenyl)-1H-indole-6-carboxamidine (DAPI) and imaged using an Opera QEHS confocal imaging system (PerkinElmer, Waltham, MA, USA). Images were analyzed, as previously described, using Acapella spot detection software (PerkinElmer, Waltham, MA, USA).
(§3) Normalizing of raw data used the in-plate positive (5 μM puromycin 100% inhibition) and negative (0.4% DMSO–no inhibition) controls to obtain percent inhibition and then used to calculate IC50 values through a 4 parameter logistic curve fitting in GraphPad Prism v.6.

Data set [2] has as its system Plasmodium falciparum 3D7 (chloroquine-sensitive strain). As to the kind of experiment: In vitro anti-plasmodial image-based asexual assay, 3D7 strain. The data set is classed as cell-based. Particulars: for IC50 / inhibition at 80 µM: 3D7 strain; for IC50: 72 h; for inhibition at 80 µM: top dose of 80 µM, read-out: Pf 3D7 inhibition at the top dose. Here is the method:
as §1, §2, §3

Another data set has as its system Pf 3D7. Conditions: cited from earlier work.
Data set [3] deals with Plasmodium falciparum (Pf). Details: method as in earlier work. Particulars: OSM master compounds' list; read-out: Pf activity IC50, previously reported OSM data; cited from earlier work.
Setting [4] is: controls, read-out: Pf Dd2 IC50 ± SD (controls).
Where [5] appears, read: Plasmodium falciparum, 3D7, 72 h, controls, read-out: Pf 3D7 IC50 ± SD (controls).
Where [6] appears, read: estimated IC50 as only ~90% inhibition reached at the top dose of 80 µM, read-out: Pf 3D7 IC50 ± SD (estimated, footnote d).
The mark [7] stands for this setting: Plasmodium falciparum, 3D7, 72 h, estimated IC50 as only ~90% inhibition reached at the top dose of 80 µM, read-out: Pf 3D7 IC50 ± SD (estimated, footnote d).
[8] abbreviates: in vitro, read-out: IC50 (Pf 3D7), Figure 1.
[9] abbreviates: Plasmodium falciparum, 3D7, 72 h, read-out: Pf 3D7 IC50 ± SD.

The values below come from paper PMC8122397, “Synthesis of New Triazolopyrazine Antimalarial Compounds” (Molecules, 2021).

Structures are written as SMILES. Where two headings read alike, the source gives them in different places.

One may read the IC50 as the midpoint of a concentration-inhibition curve. Regarding `C[C@H]1[C@H](OC(=O)CCC(=O)O)O[C@@H]2O[C@@]3(C)CC[C@H]4[C@H](C)CC[C@@H]1[C@@]24OO3` [Artesunate, reference compound], the IC50 in data set [1] (setting [4]) was determined as 0.002 ± 0.0001 µM; in data set [2] (setting [5]), 0.00348 ± 0.00014 µM.
Take `FC(F)Oc1ccc(-c2nnc3cncc(Cl)n23)cc1` [Compound 1]: the values for the IC50 in data set [1] (read-out: Pf Dd2 IC50 ± SD), in data set [2] (setting [6]) and in data set [2] (setting [7]) were 22.8 ± 13.7 µM, 16.8 ± 1.25 µM and 16.8 µM, respectively.
For the compound `FC(F)Oc1ccc(-c2nnc3cncc(OCCc4ccccc4)n23)cc1` [Compound 2, 3-[4-(Difluoromethoxy)phenyl]-5-(2-phenylethoxy)-[1,2,4]triazolo[4,3-α]pyrazine], the IC50 is 0.54 ± 0.02 µM in data set [1] (read-out: Pf Dd2 IC50 ± SD); 0.3 µM in the data set on Pf 3D7 (setting [8]); 0.301 µM in the data set on Pf 3D7 (read-out: IC50 against Pf 3D7, previously reported); 0.31 ± 0.01 µM in data set [2] (read-out: Pf 3D7 IC50 ± SD); 0.3 µM in data set [2] (setting [9]).
A word on the melting point: it is the temperature, or range, at which the solid turns liquid. With `FC(F)Oc1ccc(-c2nnc3cncc(OCC(F)(F)F)n23)cc1` [Compound 3, 3-[(4-Difluoromethoxy)phenyl]-5-(2,2,2,-trifluroethoxy)-[1,2,4]triazolo[4,3-α]pyrazine], the melting point is 169 to 170 °C. The IC50 in data set [3] was 10 µM. The IC50 in data set [1] (read-out: Pf Dd2 IC50 ± SD) worked out at 21.2 ± 5.41 µM. Also, in data set [2] (read-out: Pf 3D7 IC50 ± SD), the IC50 was found to be 16.6 ± 1.02 µM. For the same compound, the IC50 in data set [2] (setting [9]) is 16.7 µM.
In general, inhibition refers to the relative decrease from the control value, in per cent. Turning to `Oc1nccn2c(-c3ccc(OC(F)F)cc3)nnc12` [Compound 4, 3-[4-(Difluoromethoxy)phenyl]-[1,2,4]triazolo[4,3-α]pyrazin-8-ol], the inhibition at 80 µM in data set [2] (Plasmodium falciparum) was below 41%.
`C[Si](C)(C)CCOc1cncc2nnc(-c3ccc(OC(F)F)cc3)n12` [Compound 5] showed a melting point of 135 °C. The “Dd2 potency compared to the 3D7 results, in words” value in data set [1] was “large decreases in potency”. Moreover, in data set [2] (setting [9]), the IC50 came out at 13.9 ± 0.87 µM.
Turning to `C[Si](C)(C)CCOc1nccn2c(-c3ccc(OC(F)F)cc3)nnc12` [Compound 6, 3-[4-(Difluoromethoxy)phenyl]-8-[2-(trimethylsilyl)ethoxy)-[1,2,4]triazolo[4,3-α]pyrazine], the inhibition at 80 µM in data set [2] (Plasmodium falciparum) is below 41%.
`Clc1ccc(-c2nnc3cncc(Cl)n23)cc1` [Compound 7]: the IC50 in data set [1] (read-out: Pf Dd2 IC50 ± SD) was 14.3 ± 0.62 µM; in data set [2] (setting [9]) it was 12.6 µM.
In the case of `Cc1ncc(Cl)n2c(-c3ccc(Cl)cc3)nnc12` [Compound 8, 5-Chloro-3-(4-chlorophenyl)-8-methyl-[1,2,4]triazolo[4,3-α]pyrazine], the IC50 in data set [1] (read-out: Pf Dd2 IC50 ± SD) was 32.4 ± 1.44 µM; in data set [2] (setting [7]), 19.2 ± 0.28 µM.
Take `N#Cc1ccc(-c2nnc3cncc(Cl)n23)cc1` [Compound 9]: the IC50 was 25.9 ± 0.74 µM in data set [1] (read-out: Pf Dd2 IC50 ± SD), 18.9 ± 0.66 µM in data set [2] (setting [6]) and 18.9 µM in data set [2] (setting [7]).
In the case of `Cc1ncc(Cl)n2c(-c3ccc(C#N)cc3)nnc12` [Compound 10, 4-(5-Chloro-8-methyl-1,2,4-triazolo[4,3-α]pyrazin-3-yl)benzonitrile], the values for the IC50 in data set [1] (read-out: Pf Dd2 IC50 ± SD) and in data set [2] (setting [7]) were 38.2 ± 0.61 µM and 27.3 ± 0.82 µM, respectively.
Turning to `Cc1ncc(Cl)n2c(-c3ccc(OC(F)F)cc3)nnc12` [Compound 11, 5-Chloro-3-[(4-difluoromethoxy)phenyl]-8-methyl-[1,2,4]triazolo[4,3-α]pyrazine], in data set [1], the “Dd2 potency compared to the 3D7 results, in words” value is reported as “large decreases in potency”. For the same compound, the figures for the IC50 in data set [1] (read-out: Pf Dd2 IC50 ± SD), in data set [2] (read-out: Pf 3D7 IC50 ± SD) and in data set [2] (setting [9]) were 31.2 ± 0.82 µM, 12.5 ± 0.58 µM and 12.5 µM, respectively.
Consider `Cc1ncc(OCC(F)(F)F)n2c(-c3ccc(OC(F)F)cc3)nnc12` [Compound 12, 3-[4-(Difluoromethoxy)phenyl]-8-methyl-5-(2,2,2-trifluoroethoxy)-[1,2,4]triazolo[4,3-a]pyrazine], for which, in data set [1], the “Dd2 potency compared to the 3D7 results, in words” value is on record as “large decreases in potency” and the inhibition at 80 µM is below 41%. In data set [2] (3D7, predicted IC50 value not calculated), the “growth inhibition at the top screening concentration” value is below 90%.
For the compound `Cc1ncc(OCCc2ccccc2)n2c(-c3ccc(OC(F)F)cc3)nnc12` [Compound 13, 3-[4-(Difluoromethoxy)phenyl]-8-methyl-5-(2-phenylethoxy)-[1,2,4]triazolo[4,3-a]pyrazine], the “Dd2 potency compared to the 3D7 results, in words” value in data set [1] was “slight increase in potency”. The IC50 was 8.2 ± 0.6 µM in data set [1] (read-out: Pf Dd2 IC50 ± SD), 11 ± 0.56 µM in data set [2] (setting [6]) and 11.1 µM in data set [2] (setting [7]). Also, the “fold decrease in potency on methylation” value in data set [2] (3D7, compared with compound 2) came to 37 fold.
As for `FC(F)(F)c1ncc(Cl)n2c(-c3ccc(Cl)cc3)nnc12` [Compound 14, 5-Chloro-3-(4-chlorophenyl)-8-(trifluoromethyl)-[1,2,4]triazolo[4,3-α]pyrazine], the concentration for half-maximal inhibition (IC50) in data set [1] (read-out: Pf Dd2 IC50 ± SD) stood at 6.18 ± 0.09 µM; in data set [2] (setting [9]), 4.84 ± 0.13 µM.
`CC(F)(F)c1ncc(Cl)n2c(-c3ccc(Cl)cc3)nnc12` [Compound 15, 5-Chloro-3-(4-chlorophenyl)-8-(1,1-difluoroethyl)-[1,2,4]triazolo[4,3-a]pyrazine]: the IC50 in data set [1] (read-out: Pf Dd2 IC50 ± SD) was 2.58 ± 0.07 µM; in data set [2] (read-out: Pf 3D7 IC50 ± SD), 1.72 ± 0.02 µM; in data set [2] (setting [9]), 1.7 µM. Besides, the “fold improvement in potency compared to the parent scaffold” value in data set [2] (3D7, compared with scaffold 7) is recorded as 7.3 fold.
As to `CC(F)(F)c1nccn2c(-c3ccc(Cl)cc3)nnc12` [Compound 16, 3-(4-Chlorophenyl)-8-(1,1-difluoroethyl)-[1,2,4]triazolo[4,3-a]pyrazine], in data set [1], the “Dd2 potency compared to the 3D7 results, in words” value is “large decreases in potency”. Also, the IC50 in data set [1] (read-out: Pf Dd2 IC50 ± SD) is 24.7 ± 0.15 µM; in data set [2] (setting [9]), 6.4 ± 0.1 µM.
`FC1(F)CCC(c2ncc(Cl)n3c(-c4ccc(Cl)cc4)nnc23)CC1` [Compound 17, 5-Chloro-3-(4-chlorophenyl)-8-(4,4-difluorocyclohexyl)-[1,2,4]triazolo[4,3-a]pyrazine]: in data set [1], the “Dd2 potency compared to the 3D7 results, in words” value is given as “large decreases in potency” and the inhibition at 80 µM is below 41%. For the same compound, the “antimalarial activity in words” value in data set [2] (3D7) was “limited activity”. The IC50 in data set [2] (setting [7]) is 20.2 ± 2.86 µM.
Take `FC1(F)CCC(c2nccn3c(-c4ccc(Cl)cc4)nnc23)CC1` [Compound 18, 3-(4-Chlorophenyl)-8-(4,4-difluorocyclohexyl)-[1,2,4]triazolo[4,3-a]pyrazine]: the melting point was 203 to 205 °C. Moreover, in data set [2] (3D7), the “antimalarial activity in words” value is “limited activity”. Moreover, in data set [2] (Plasmodium falciparum), the inhibition at 80 µM was below 41%.
With `OCC(COc1cncc2nnc(-c3ccc(OC(F)F)cc3)n12)c1ccccc1` (stereo not shown) [OSM-LO-13], the IC50 with Pf 3D7 (setting [8]) is 0.279 µM.
Take `Fc1ccc([C@@H](COc2cncc3nnc(-c4ccc(OC(F)F)cc4)n23)OC(F)F)cc1F` [OSM-S-377]: in the data set with Pf 3D7 (setting [8]), the IC50 is 0.016 µM.
With `OC(COc1cncc2nnc(-c3ccc(OC(F)F)cc3)n12)c1ccc(F)c(F)c1` (stereo not shown) [OSM-S-390], in the data set on Pf 3D7 (setting [8]), the IC50 was 0.07 µM.
In the case of `COc1ccc(C[C@H](N)C(=O)N[C@H]2[C@@H](O)[C@H](n3cnc4c(N(C)C)ncnc43)O[C@@H]2CO)cc1` [Puromycin, reference compound], the IC50 worked out at 0.101 ± 0.0028 µM in data set [1] (setting [4]) and 0.0953 ± 0.00145 µM in data set [2] (setting [5]).
Turning to `CCc1nc(N)nc(N)c1-c1ccc(Cl)cc1` [Pyrimethamine, reference compound], in data set [1], the inhibition at 80 µM is below 41%. Moreover, in data set [2] (setting [5]), the IC50 is 0.01208 ± 4e-05 µM.
